According to ChEMBL document CHEMBL2429842, “Phthaloyl amino acids as anti-inflammatory and immunomodulatory prototypes” (Med Chem Res, 2013):
Activity calls are given as the source filed them. The rule behind the calls is not given here.

Key:
Mus musculus [1] = assay: Antiinflammatory activity in carrageenan-induced air pouch mouse model assessed as inhibition of leukocyte migration from blood circulation into air pouches at 100 mg/kg, po administered 1 hr before carrageenan challenge measured after 6 hrs relative to control; assay type: functional
HCT-8 = assay: Antiproliferative activity against human HCT8 cells at 25 ug/ml after 48 hrs by MTT assay; assay type: functional; settings: HCT-8, 48 h
Splenocyte [2] = assay: Immunomodulatory activity in BALB/c mouse splenocytes assessed as inhibition of LPS-induced nitric oxide production at 50 ug/ml after 72 hrs by Griess method relative to control; assay type: functional
[3] = Cytotoxicity against BALB/c mouse splenocytes assessed as highest nontoxic concentration after 24 hrs by [3H]-thymidine incorporation assay; assay type: cell-based, Splenocyte; settings: read-out: Activity
SF-295 = assay: Antiproliferative activity against human SF295 cells at 25 ug/ml after 48 hrs by MTT assay; assay type: functional; settings: SF-295, 48 h
Splenocyte [4] = assay: Immunomodulatory activity in BALB/c mouse splenocytes assessed as inhibition of LPS-induced nitric oxide production at 25 ug/ml after 72 hrs by Griess method relative to control; assay type: functional
MDA-MB-435 = assay: Antiproliferative activity against human MDA-MB-435 cells at 25 ug/ml after 48 hrs by MTT assay; assay type: functional; settings: MDA-MB-435, 48 h
[5] = Cytotoxicity against BALB/c mouse splenocytes assessed as cell viability after 24 hrs by [3H]-thymidine incorporation assay; assay type: cell-based, Splenocyte; design: concentration or dose not given beside the values; settings: read-out: Activity
[6] = test system: Peritoneal macrophage cell; assay: Immunomodulatory activity mouse peritoneal macrophages assessed as inhibition of LPS-induced IL-1beta production at 50 uM after 24 hrs by ELISA; assay type: functional, cell-based
Mus musculus [7] = assay: Immunomodulatory activity in carrageenan-induced air pouch mouse model assessed as reduction of nitric oxide production in air pouch at 10 mg/kg, po by Griess method; assay type: functional, organism-based; design: dose 10 mg/kg
Mus musculus [8] = assay: Antiinflammatory activity in carrageenan-induced air pouch mouse model assessed as inhibition of leukocyte migration from blood circulation into air pouches at 10 mg/kg, po administered 1 hr before carrageenan challenge measured after 6 hrs relative to control; assay type: functional
[9] = test system: Peritoneal macrophage cell; assay: Immunomodulatory activity mouse peritoneal macrophages assessed as inhibition of LPS-induced TNFalpha production at 50 uM after 24 hrs by ELISA; assay type: functional, cell-based

| Structure (SMILES) | inhibition in vivo at 100 mg/kg (Mus musculus [1]) [%] | inhibition at 25 µg/mL (HCT-8) [%] | Activity (Splenocyte [2]) [µg/mL] | MNTC at 24 h [3] [µg/mL] | inhibition at 25 µg/mL (SF-295) [%] | Activity (Splenocyte [4]) [µg/mL] | inhibition at 25 µg/mL (MDA-MB-435) [%] | viability at 24 h [5] [%] | inhibition [6] | Activity (Mus musculus [7]) | inhibition in vivo at 10 mg/kg (Mus musculus [8]) [%] | inhibition [9] |
| --- | --- | --- | --- | --- | --- | --- | --- | --- | --- | --- | --- | --- |
| O=C(O)CCN1C(=O)c2ccccc2C1=O | 54.2 | 18.9 | 4.4 | 50 | 12.6 | 3.6 | -3.71 | 22.2 | – | – | – | – |
| C[C@@H](C(=O)O)N1C(=O)c2ccccc2C1=O | 38.4 | 6.11 | 1.5 | > 100 | 12.2 | 2.1 | 5.01 | – | – | – | – | – |
| O=C(O)[C@H](Cc1ccccc1)N1C(=O)c2ccccc2C1=O | 64.2 | -7.23 | 0.7 | 25 | 13.5 | 2.3 | 11.7 | 21.5 | Active | – | – | – |
| O=C1CCC(N2C(=O)c3ccccc3C2=O)C(=O)N1 (centres undefined) [THALIDOMIDE] | 72.1 | – | 3.6 | > 100 | – | 3.6 | – | – | – | Active | 76.3 | – |
| O=C(O)CC[C@@H](C(=O)O)N1C(=O)c2ccccc2C1=O | 61.7 | 6.52 | 3.4 | 50 | 14.4 | 2.9 | 12.9 | 8.75 | – | – | – | – |
| CC(C)[C@@H](C(=O)O)N1C(=O)c2ccccc2C1=O | 57.8 | 4.28 | 2.7 | 25 | 2.74 | 6.4 | 7.82 | 24.7 | – | – | – | – |
| O=C(O)CN1C(=O)c2ccccc2C1=O | 47.7 | -0.61 | 3.6 | 50 | 3.98 | 4.2 | -4.72 | 25.6 | Active | – | – | Active |
| O=C(O)[C@H](Cc1c[nH]c2ccccc12)N1C(=O)c2ccccc2C1=O | 43.8 | 10.4 | 2.1 | 50 | 24.5 | 1.3 | 13.8 | 27.6 | Active | Active | – | Active |
| CC[C@H](C)[C@@H](C(=O)O)N1C(=O)c2ccccc2C1=O | 67.5 | 15 | 2.3 | 12.5 | 20 | 3.1 | 14.9 | 26.1 | – | – | 64.7 | – |
| COc1cccc2c1C(=O)c1c(O)c3c(c(O)c1C2=O)C[C@@](O)(C(=O)CO)C[C@@H]3O[C@H]1C[C@H](N)[C@H](O)[C@H](C)O1 [DOXORUBICIN] | – | 97.1 | – | – | 81.4 | – | 94.6 | – | – | – | – | – |
